Test results as given in ChEMBL document CHEMBL3044801, “Synthesis and antiprotozoal activity of 1,2,3,4-tetrahydro-2-thioxopyrimidine analogs of combretastatin A-4” (Med Chem Res, 2011).
Activity calls are given as the source filed them. The rule behind the calls is not given here.

Experiments:
Giardia intestinalis [1] = test: Antiprotozoan activity against Giardia intestinalis after 72 hr by MTT assay; format: functional, organism-based; conditions: Giardia duodenalis
Trypanosoma lewisi = test: Antiprotozoan activity against Trypanosoma lewisi after 72 hr by MTT assay; format: functional, organism-based
Leishmania tarentolae = test: Antiprotozoan activity against Leishmania tarentolae after 72 hr by MTT assay; format: functional, organism-based
Plasmodium falciparum = test: Antiprotozoan activity against Plasmodium falciparum assessed as inhibition of [3H]hypoxanthine incorporation incubated for 24 hr prior to [3H]hypoxanthine addition measured after 18 hr by liquid scintillation counting; format: functional, organism-based
B16 = test: Cytotoxicity against Mus musculus (mouse) B16 cells after 72 hr by MTT assay; format: cell-based; conditions: B16, 72 h
L1210 = test: Cytotoxicity against Mus musculus (mouse) L1210 cells after 72 hr by MTT assay; format: cell-based; conditions: L1210, 72 h
[2] = Selectivity index, ratio of IC50 for mouse B16 cells to IC50 for Leishmania tarentolae; format: toxicity, cell-based; conditions: B16 cells versus Leishmania tarentolae, read-out: Ratio IC50
[3] = Selectivity index, ratio of IC50 for mouse L1210 cells to IC50 for Giardia lamblia
[4] = Selectivity index, ratio of IC50 for mouse L1210 cells to IC50 for Leishmania tarentolae; format: toxicity, cell-based; conditions: L1210 cells versus Leishmania tarentolae, read-out: Ratio IC50
[5] = Selectivity index, ratio of IC50 for mouse B16 cells to IC50 for Trypanosoma lewisi; format: toxicity, cell-based; conditions: B16 cells versus Trypanosoma lewisi, read-out: Ratio IC50
[6] = Selectivity index, ratio of IC50 for mouse B16 cells to IC50 for Giardia lamblia
[7] = Selectivity index, ratio of IC50 for mouse L1210 cells to IC50 for Trypanosoma lewisi; format: toxicity, cell-based; conditions: L1210 cells versus Trypanosoma lewisi, read-out: Ratio IC50
Giardia intestinalis [8] = test: Antiprotozoan activity against Giardia intestinalis assessed as decrease in viability at 12.1 to 21.5 uM after 72 hr by microscopic analysis; format: functional, organism-based; conditions: Giardia duodenalis

For `COc1cc(C2=CC(c3cc(OC)c(OC)c(OC)c3)NC(=S)N2)cc(OC)c1OC` (stereo not drawn), the IC50 (Giardia intestinalis [1]) was 24.8 µM, the IC50 (Trypanosoma lewisi) was 29.3 µM and the IC50 (Leishmania tarentolae) was 46.6 µM.

In the case of `COc1ccc(C2=CC(c3ccc(OC)cc3)NC(=S)N2)cc1` (stereo not drawn), the IC50 (Plasmodium falciparum) is reported as 25 µM, the IC50 (Trypanosoma lewisi) is reported as 15.2 µM and the IC50 (Leishmania tarentolae) is reported as 17.8 µM. For the same compound, the IC50 (B16) was greater than 100 µM and the IC50 (L1210) was greater than 100 µM.

`COc1cc(OC)c(C2C=C(c3cc(OC)ccc3OC)NC(=S)N2)c(OC)c1` (stereo not drawn) showed an IC50 (Giardia intestinalis [1]) of 33.8 µM, an IC50 (Plasmodium falciparum) of 17.3 µM and an IC50 (Trypanosoma lewisi) of 25 µM. For the same compound, the IC50 (Leishmania tarentolae) was 10.4 µM.

For `COc1ccc(C2=CC(c3ccc(OC)c(OC)c3)NC(S)=N2)cc1` (stereo not drawn), the IC50 (Giardia intestinalis [1]) was greater than 100 µM, the IC50 (Plasmodium falciparum) was 31 µM and the IC50 (Trypanosoma lewisi) was 25.8 µM. It also gave an IC50 (Leishmania tarentolae) of 27.2 µM, an IC50 (B16) greater than 100 µM and an IC50 (L1210) greater than 100 µM.

In the case of `COc1cc(C2=CC(c3ccc([N+](=O)[O-])cc3)NC(=S)N2)cc(OC)c1OC` (stereo not drawn), the selectivity ratio [2] is reported as 8, the “Ratio IC50” value [3] is reported as 4 and the selectivity ratio [4] is reported as 8. For the same compound, the IC50 (Giardia intestinalis [1]) was 21 µM, the IC50 (Trypanosoma lewisi) was 50 µM and the IC50 (Leishmania tarentolae) was 13.7 µM. The selectivity ratio [5] was 2, the “Ratio IC50” value [6] was 4 and the selectivity ratio [7] was 2.

For `COc1cc(C2=CC(c3ccc(Cl)cc3)NC(=S)N2)cc(OC)c1OC` (stereo not drawn), the IC50 (Giardia intestinalis [1]) was 46.7 µM, the IC50 (Trypanosoma lewisi) was 27 µM and the IC50 (Leishmania tarentolae) was 10.2 µM.

Compound `COc1cc(OC)c(C2C=C(c3cc(OC)c(OC)c(OC)c3)NC(=S)N2)c(OC)c1` (stereo not drawn) has an IC50 (Giardia intestinalis [1]) of 20.3 µM, an IC50 (Trypanosoma lewisi) of 29.6 µM and an IC50 (Leishmania tarentolae) of 46.6 µM.

`COc1ccc(C2=CC(c3c(OC)cc(OC)cc3OC)NC(=S)N2)cc1` (stereo not drawn) showed an IC50 (Giardia intestinalis [1]) greater than 100 µM, an IC50 (Plasmodium falciparum) of 14.6 µM and an IC50 (Trypanosoma lewisi) of 13.4 µM. The IC50 (Leishmania tarentolae) was 25.1 µM, the IC50 (B16) was 25 µM and the IC50 (L1210) was 85 µM.

In the case of `COc1ccc(C2C=C(c3cc(OC)ccc3OC)NC(=S)N2)cc1` (stereo not drawn), the IC50 (Giardia intestinalis [1]) is reported as greater than 100 µM, the IC50 (Plasmodium falciparum) is reported as 69.4 µM and the IC50 (Trypanosoma lewisi) is reported as 16.5 µM. It also gave an IC50 (Leishmania tarentolae) of 11.4 µM, an IC50 (B16) of 80 µM and an IC50 (L1210) of 87 µM.

For `COc1ccc(C2C=C(c3cc(OC)c(OC)c(OC)c3)NC(=S)N2)cc1[N+](=O)[O-]` (stereo not drawn), the selectivity ratio [2] was 8, the “Ratio IC50” value [3] was 4 and the selectivity ratio [4] was 8. The IC50 (Giardia intestinalis [1]) was 24.3 µM, the IC50 (Trypanosoma lewisi) was 39.5 µM and the IC50 (Leishmania tarentolae) was 12.5 µM. For the same compound, the selectivity ratio [5] was 2, the “Ratio IC50” value [6] was 4 and the selectivity ratio [7] was 2.

`COc1ccc(OC)c(C2=CC(c3ccc(OC)c([N+](=O)[O-])c3)NC(=S)N2)c1` (stereo not drawn) gave an IC50 (Giardia intestinalis [1]) of 57.8 µM, an IC50 (Trypanosoma lewisi) of 33.3 µM and an IC50 (Leishmania tarentolae) of 21.1 µM.

Compound `COc1ccc(OC)c(C2=CC(c3cc(OC)ccc3OC)NC(=S)N2)c1` (stereo not drawn) has an IC50 (Giardia intestinalis [1]) greater than 100 µM, an IC50 (Plasmodium falciparum) of 27.9 µM and an IC50 (Trypanosoma lewisi) of 27.3 µM. The IC50 (Leishmania tarentolae) was 18 µM, the IC50 (B16) was greater than 100 µM and the IC50 (L1210) was greater than 100 µM.

`COc1ccc(OC)c(C2C=C(c3cc(OC)c(OC)c(OC)c3)NC(=S)N2)c1` (stereo not drawn) showed an IC50 (Giardia intestinalis [1]) of 23.5 µM, an IC50 (Trypanosoma lewisi) of 48.4 µM and an IC50 (Leishmania tarentolae) of 30.3 µM.

`COc1cccc(C2C=C(c3cc(OC)c(OC)c(OC)c3)NC(=S)N2)c1` (stereo not drawn) gave an IC50 (Giardia intestinalis [1]) of 40.4 µM, an IC50 (Trypanosoma lewisi) of 24.3 µM and an IC50 (Leishmania tarentolae) of 19.4 µM.

For `COc1ccc(C2C=C(c3cc(OC)c(OC)c(OC)c3)NC(=S)N2)cc1O` (stereo not drawn), the Activity (Giardia intestinalis [8]) was “Active”, the IC50 (Giardia intestinalis [1]) was 21.5 µM and the IC50 (Trypanosoma lewisi) was 49.2 µM. It also gave an IC50 (Leishmania tarentolae) of 12.1 µM.

`COc1ccc(C2C=C(c3cc(OC)c(OC)c(OC)c3)NC(=S)N2)cc1` (stereo not drawn) gave an IC50 (Giardia intestinalis [1]) of 22.3 µM, an IC50 (Plasmodium falciparum) of 14.5 µM and an IC50 (Trypanosoma lewisi) of 17.9 µM. The IC50 (Leishmania tarentolae) was 12.5 µM, the IC50 (B16) was 36 µM and the IC50 (L1210) was 41 µM.

`COc1ccc(OC)c(C2=CC(c3cc(OC)c(OC)c(OC)c3)NC(=S)N2)c1` (stereo not drawn) gave an IC50 (Giardia intestinalis [1]) greater than 100 µM, an IC50 (Plasmodium falciparum) of 13.3 µM and an IC50 (Trypanosoma lewisi) of 15.7 µM. The IC50 (Leishmania tarentolae) was 16.8 µM, the IC50 (B16) was 0.5 µM and the IC50 (L1210) was 6 µM.

Work on `COc1ccc(C2C=C(c3cc(OC)c(OC)c(OC)c3)NC(=S)N2)cc1OC` (stereo not drawn) yielded an IC50 (Giardia intestinalis [1]) of 22.7 µM, an IC50 (Trypanosoma lewisi) of 52.1 µM and an IC50 (Leishmania tarentolae) of 36.4 µM.
